Data reported in patent publication US4725683A, “Fluorophenoxyphenoxypropionates and derivatives thereof” (The Dow Chemical Company, priority 1985, dated 1988).
Like-named read-outs stand apart in the source and are kept apart here.

Experiments:
Type in all cases: in vivo
Johnson Grass [1] = assay: Postemergent activity
Protocol: (§1) Representative compositions of the present invention were evaluated for the postemergence control of species of plants listed in Table A. In these evaluations, pots of the plant species listed in Table A, grown to a height of about 10 cms, were used. Aqueous spray compositions, containing various amounts of 2-[4-(2-fluoro-4-trifluoromethylphenoxy)-phenoxy]propionic acid methy ester, i.e., 125 ppm, 62.5 ppm, 31.25 ppm, 15.6 ppm, 7.8 ppm and 3.9 ppm, respectively, were applied to separate pots. The spray compositions were made by mixing the active ingredient in acetone to 1/2 the final volume, i.e., twice the final concentration. An equal amount of water was added to the active ingredient/acetone mixture wherein the water contained 0.1 percent by weight of TWEEN® 200 surfactant. The application to the plants was made to the point of run-off and was carried out with conventional spraying equipment. Other pots were sprayed with similar compositions containing no toxicant to serve as controls. Thereafter, the pots were maintained under conditions conducive for plant growth. Two weeks after treatment, the pots were examined for plant growth and evaluated on a scale of 0 to 100 where 0 represents no effect and 100 represents complete kill. The results of the examination of the treated pots are set forth below in Table A.

Johnson Grass [2] = assay: Preemergent activity; settings: Sorghum halepense, pre-emergence, read-out: Preemergence Control; for pest or weed control at 70 g/ha: 0.07 kgs/hectare; for pest or weed control at 140 g/ha: 0.14 kgs/hectare; for pest or weed control at 280 g/ha: 0.28 kgs/hectare; for pest or weed control at 560 g/ha: 0.56 kgs/hectare; for pest or weed control at 1120 g/ha: 1.12 kgs/hectare
Protocol: (§2) In a representative operation, 2-[4-(2-fluoro-4-trifluoromethylphenoxy)phenoxy]propionic acid methyl ester, to be utilized in a series of tests, is dissolved in acetone to one half of the final volume (twice the final concentration) to be used and the acetone solution in each case is admixed with an equal volume of water containing 0.1 percent by weight of Tween-20 surface active material (Tween-20 is a trademark of Atlas Chemical Company). The composition, generally in the nature of an emulsion, was employed to treat separate respective seed beds of sandy loam soil of good nutrient content wherein each seed bed contained separate groups of good viable seeds, each group being of one of a known plant species. The various beds were positioned side by side and exposed to substantially identical conditions of temperature and light. Each bed was maintained so as to prevent any interaction with the test compound in different seed beds. Each seed bed was treated with the composition as a spray employing conventional spraying equipment to deposit a predetermined amount of the compound uniformly throughout the surface of the bed. Another seed bed was treated only with the acetone-Tween-20 water mixture with no chemical added to serve as a control.

Yellow Foxtail [3] = assay: Preemergent activity; settings: Setaria, pre-emergence, read-out: Preemergence Control; for pest or weed control at 70 g/ha: 0.07 kgs/hectare; for pest or weed control at 140 g/ha: 0.14 kgs/hectare; for pest or weed control at 280 g/ha: 0.28 kgs/hectare; for pest or weed control at 560 g/ha: 0.56 kgs/hectare; for pest or weed control at 1120 g/ha: 1.12 kgs/hectare
Protocol: as §2

Wheat [4] = assay: Preemergent activity; settings: Triticum aestivum, pre-emergence, read-out: Preemergence Control; for plant injury at 70 g/ha: 0.07 kgs/hectare; for plant injury at 140 g/ha: 0.14 kgs/hectare; for plant injury at 280 g/ha: 0.28 kgs/hectare; for plant injury at 560 g/ha: 0.56 kgs/hectare; for plant injury at 1120 g/ha: 1.12 kgs/hectare
Protocol: as §2

Wild Oats [5] = assay: Preemergent activity; settings: Avena fatua, pre-emergence, read-out: Preemergence Control; for pest or weed control at 70 g/ha: 0.07 kgs/hectare; for pest or weed control at 140 g/ha: 0.14 kgs/hectare; for pest or weed control at 280 g/ha: 0.28 kgs/hectare; for pest or weed control at 560 g/ha: 0.56 kgs/hectare; for pest or weed control at 1120 g/ha: 1.12 kgs/hectare
Protocol: as §2

Barnyard Grass [6] = assay: Preemergent activity; settings: Echinochloa crus-galli, pre-emergence, read-out: Preemergence Control; for pest or weed control at 140 g/ha: 0.14 kgs/hectare; for pest or weed control at 280 g/ha: 0.28 kgs/hectare; for pest or weed control at 560 g/ha: 0.56 kgs/hectare; for pest or weed control at 1120 g/ha: 1.12 kgs/hectare
Protocol: as §2

Crabgrass [7] = assay: Postemergent activity
Protocol: as §1
(§3) Substantially the same procedures as those described in Example A were repeated except that the active ingredients were 2-[4-(4-chloro-2-fluorophenoxy)phenoxy]propionic acid; methyl ester and its R-enantiomer and 2-(4-(4-bromo-2-fluorophenoxy)phenoxy propionic acid; methyl ester and its R enantiomer. The results are listed below in Table B.
(§4) In further operations employing the above general procedures and the indicated test compounds the following results were obtained: […]

Wheat [8] = assay: Postemergent activity; settings: Triticum aestivum, post-emergence, 336 h, read-out: % Control
Protocol: as §1, §3, §4

Wild Oats [9] = assay: Postemergent activity; settings: Avena fatua, post-emergence, 336 h, read-out: % Control
Protocol: as §1, §3, §4

Barnyard Grass [10] = assay: Postemergent activity
Protocol: as §1, §3, §4

Yellow Foxtail [11] = assay: Postemergent activity
Protocol: (§5) Representative compositions of the present invention were evaluated for the postemergence control of species of plants listed in Table A. In these evaluations, pots of the plant species listed in Table A, grown to a height of about 10 cms, were used. […] The spray compositions were made by mixing the active ingredient in acetone to 1/2 the final volume, i.e., twice the final concentration. An equal amount of water was added to the active ingredient/acetone mixture wherein the water contained 0.1 percent by weight of TWEEN® 200 surfactant. The application to the plants was made to the point of run-off and was carried out with conventional spraying equipment. […] Thereafter, the pots were maintained under conditions conducive for plant growth.

Crabgrass [12] = assay: Preemergent activity
Protocol: as §2

Blackgrass = assay: Postemergent activity
Protocol: as §5

Green Foxtail = assay: Postemergent activity
Protocol: as §5

Cheatgrass = assay: Postemergent activity
Protocol: as §5

Barley = assay: Postemergent activity
Protocol: as §5

COC(=O)C(C)Oc1ccc(Oc2ccc(I)cc2F)cc1 (stereo not shown) [2-(4-(2-fluoro-4-iodophenoxy)phenoxy)propionic acid methyl ester]
% Control (Johnson Grass [1]; 15.6 ppm): 90% | % Control (Johnson Grass [1]; 31.25 ppm): 100% | % Control (Johnson Grass [1]; 62.5 ppm): 100% | % Control (Johnson Grass [1]; 125 ppm): 100% | pest or weed control at 70 g/ha (Johnson Grass [2]): 0% | pest or weed control at 140 g/ha (Johnson Grass [2]): 0% | pest or weed control at 280 g/ha (Johnson Grass [2]): 60% | pest or weed control at 560 g/ha (Johnson Grass [2]): 99% | pest or weed control at 1120 g/ha (Johnson Grass [2]): 100% | pest or weed control at 70 g/ha (Yellow Foxtail [3]): 0% | pest or weed control at 140 g/ha (Yellow Foxtail [3]): 0% | pest or weed control at 280 g/ha (Yellow Foxtail [3]): 20% | pest or weed control at 560 g/ha (Yellow Foxtail [3]): 100% | pest or weed control at 1120 g/ha (Yellow Foxtail [3]): 100% | plant injury at 70 g/ha (Wheat [4]): 0% | plant injury at 140 g/ha (Wheat [4]): 0% | plant injury at 280 g/ha (Wheat [4]): 0% | plant injury at 560 g/ha (Wheat [4]): 20% | plant injury at 1120 g/ha (Wheat [4]): 20% | pest or weed control at 70 g/ha (Wild Oats [5]): 0% | pest or weed control at 140 g/ha (Wild Oats [5]): 0% | pest or weed control at 280 g/ha (Wild Oats [5]): 0% | pest or weed control at 560 g/ha (Wild Oats [5]): 95% | pest or weed control at 1120 g/ha (Wild Oats [5]): 99% | pest or weed control at 140 g/ha (Barnyard Grass [6]): 50% | pest or weed control at 280 g/ha (Barnyard Grass [6]): 100% | pest or weed control at 560 g/ha (Barnyard Grass [6]): 97% | pest or weed control at 1120 g/ha (Barnyard Grass [6]): 100% | % Control (Crabgrass [7]; 15.6 ppm): 100% | % Control (Crabgrass [7]; 31.25 ppm): 100% | % Control (Crabgrass [7]; 62.5 ppm): 100% | % Control (Crabgrass [7]; 125 ppm): 100% | plant injury at 15.6 ppm (Wheat [8]; 15.6 ppm): 0% | plant injury at 31.25 ppm (Wheat [8]; 31.25 ppm): 0% | plant injury at 62.5 ppm (Wheat [8]; 62.5 ppm): 0% | plant injury at 125 ppm (Wheat [8]; 125 ppm): 0% | pest or weed control at 15.6 ppm (Wild Oats [9]; 15.6 ppm): 0% | pest or weed control at 31.25 ppm (Wild Oats [9]; 31.25 ppm): 0% | pest or weed control at 62.5 ppm (Wild Oats [9]; 62.5 ppm): 0% | pest or weed control at 125 ppm (Wild Oats [9]; 125 ppm): 0% | % Control (Barnyard Grass [10]; 15.6 ppm): 10% | % Control (Barnyard Grass [10]; 31.25 ppm): 85% | % Control (Barnyard Grass [10]; 62.5 ppm): 100% | % Control (Barnyard Grass [10]; 125 ppm): 100% | % Control (Yellow Foxtail [11]; 15.6 ppm): 90% | % Control (Yellow Foxtail [11]; 31.25 ppm): 100% | % Control (Yellow Foxtail [11]; 62.5 ppm): 100% | % Control (Yellow Foxtail [11]; 125 ppm): 100%

COC(=O)[C@@H](C)Oc1ccc(Oc2ccc(Cl)cc2F)cc1 [4-Chloro-(R-Enantiomer), R enantiomer of 2-[4-(4-chloro-2-fluorophenoxy)phenoxy]propionic acid methyl ester]
pest or weed control at 70 g/ha (Johnson Grass [2]): 0% | pest or weed control at 140 g/ha (Johnson Grass [2]): 0% | pest or weed control at 280 g/ha (Johnson Grass [2]): 80% | pest or weed control at 560 g/ha (Johnson Grass [2]): 95% | pest or weed control at 1120 g/ha (Johnson Grass [2]): 98% | Preemergence Control (Crabgrass [12]; 0.07 kgs/hectare): 70% | Preemergence Control (Crabgrass [12]; 0.14 kgs/hectare): 98% | Preemergence Control (Crabgrass [12]; 0.28 kgs/hectare): 100% | Preemergence Control (Crabgrass [12]; 0.56 kgs/hectare): 100% | Preemergence Control (Crabgrass [12]; 1.12 kgs/hectare): 100% | pest or weed control at 70 g/ha (Yellow Foxtail [3]): 0% | pest or weed control at 140 g/ha (Yellow Foxtail [3]): 0% | pest or weed control at 280 g/ha (Yellow Foxtail [3]): 30% | pest or weed control at 560 g/ha (Yellow Foxtail [3]): 95% | pest or weed control at 1120 g/ha (Yellow Foxtail [3]): 98% | plant injury at 70 g/ha (Wheat [4]): 0% | plant injury at 140 g/ha (Wheat [4]): 0% | plant injury at 280 g/ha (Wheat [4]): 0% | plant injury at 560 g/ha (Wheat [4]): 10% | plant injury at 1120 g/ha (Wheat [4]): 20% | pest or weed control at 70 g/ha (Wild Oats [5]): 0% | pest or weed control at 140 g/ha (Wild Oats [5]): 0% | pest or weed control at 280 g/ha (Wild Oats [5]): 0% | pest or weed control at 560 g/ha (Wild Oats [5]): 60% | pest or weed control at 1120 g/ha (Wild Oats [5]): 80% | pest or weed control at 70 g/ha (Barnyard Grass [6]; 0.07 kgs/hectare): 0% | pest or weed control at 140 g/ha (Barnyard Grass [6]): 10% | pest or weed control at 280 g/ha (Barnyard Grass [6]): 98% | pest or weed control at 560 g/ha (Barnyard Grass [6]): 100% | pest or weed control at 1120 g/ha (Barnyard Grass [6]): 100% | plant injury at 7.8 ppm (Wheat [8]): 0% | plant injury at 15.6 ppm (Wheat [8]): 0% | plant injury at 31.25 ppm (Wheat [8]): 0% | plant injury at 62.5 ppm (Wheat [8]): 70% | plant injury at 125 ppm (Wheat [8]): 60% | pest or weed control at 7.8 ppm (Wild Oats [9]): 40% | pest or weed control at 15.6 ppm (Wild Oats [9]): 80% | pest or weed control at 31.25 ppm (Wild Oats [9]): 100% | pest or weed control at 62.5 ppm (Wild Oats [9]): 100% | pest or weed control at 125 ppm (Wild Oats [9]): 100% | % Control (Yellow Foxtail [11]; 0.4 ppm): 0% | % Control (Yellow Foxtail [11]; 0.8 ppm): 0% | % Control (Yellow Foxtail [11]; 1.6 ppm): 0% | % Control (Yellow Foxtail [11]; 3.2 ppm): 40% | % Control (Yellow Foxtail [11]; 6.3 ppm): 60% | % Control (Yellow Foxtail [11]; 12.5 ppm): 100% | % Control (Yellow Foxtail [11]; 25 ppm): 100% | % Control (Blackgrass; 0.4 ppm): 0% | % Control (Blackgrass; 0.8 ppm): 40% | % Control (Blackgrass; 1.6 ppm): 80% | % Control (Blackgrass; 3.2 ppm): 90% | % Control (Blackgrass; 6.3 ppm): 95% | % Control (Blackgrass; 12.5 ppm): 100% | % Control (Blackgrass; 25 ppm): 100% | % Control (Green Foxtail; 0.4 ppm): 0% | % Control (Green Foxtail; 0.8 ppm): 80% | % Control (Green Foxtail; 1.6 ppm): 100% | % Control (Green Foxtail; 3.2 ppm): 100% | % Control (Green Foxtail; 6.3 ppm): 100% | % Control (Green Foxtail; 12.5 ppm): 100% | % Control (Green Foxtail; 25 ppm): 100% | % Control (Cheatgrass; 0.4 ppm): 0% | % Control (Cheatgrass; 0.8 ppm): 0% | % Control (Cheatgrass; 1.6 ppm): 0% | % Control (Cheatgrass; 3.2 ppm): 0% | % Control (Cheatgrass; 6.3 ppm): 0% | % Control (Cheatgrass; 12.5 ppm): 0% | % Control (Cheatgrass; 25 ppm): 0% | % Control (Barley; 7.8 ppm): 0% | % Control (Barley; 15.6 ppm): 0% | % Control (Barley; 31.25 ppm): 0% | % Control (Barley; 62.5 ppm): 0% | % Control (Barley; 125 ppm): 40%
